Measured values taken from patent publication US20260124184A1, “ONCE DAILY ALDOSTERONE SYNTHASE INHIBITOR (R)-(+)-5-(P-CYANOPHENYL)-5,6,7,8-TETRAHYDROIMIDAZO[L,5-A]PYRIDINE” (priority 2022, published 2026).
Read-outs that look alike come from different tables or passages of the source.

What was measured:
[1] = tested on: patients with primary aldosteronism
Experimental: (§1) A double-blind, randomized, Phase 2 trial was conducted between November 2019 and June 2022 at 11 centres in Italy, Switzerland and the Netherlands (NCT04007406). […] Patients requiring fixed-dose antihypertensive therapy continued treatment throughout the study; steroid therapies, β-adrenergic and renin-angiotensin-aldosterone system blockers were not permitted. At 14-day intervals, office blood pressures were recorded and blood samples were taken for measurement of steroid and peptide hormones and electrolytes at a central laboratory.
A centrally calibrated and validated device (Spacelab Healthcare) was used; the device was fitted at the hospital outpatient department by medically qualified staff on day −1 and day 55 prior to supervised drug intake by the patient. The light digital monitor with convenient carry pouches takes the blood pressure reading at regular intervals by inflating and subsequently deflating customized cuffs placed around the non-dominant upper arm for 24-hour recording of about 70 readings. Patients followed their regular routines yet refrained from exercising or taking a bath or shower. In addition, to assure proper measurements, the patient was asked to sit down prior to reading, keep the cuff at the same level as the heart and rest the arm steady. The patient was also asked to keep a diary on activities, meals and sleep to document what he/she was doing just before the reading was taken. At the end of the 24-hour period, the patient was able to remove the monitor and cuff, shower or bathe and return the device to the Investigator at the clinic. The machine stored all readings as source data that were uploaded in the eCRF.
For all efficacy endpoints, changes from baseline were calculated from linear models and accompanied by 95% confidence intervals and p values. Log-transformed values were used for changes in ARR. The full analysis set (FAS) and safety set were defined as all randomized patients who received at least one dose of study drug.

[2] = tested on: patients with primary aldosteronism; remark: listed apart in the source
Experimental: as §1
Plasma aldosterone and plasma renin concentration were measured centrally under GCP regulations using the Liaison® chemiluminescent immunoassay kit supplied by DiaSorin S.p.A. Italy. The system used specific monoclonal antibodies to prevent cross reactions with other major potential reactants in the serum samples. The monoclonal antibodies directed against specific epitopes of the renin molecule allowed accurate and sensitive quantification. The assays were performed according to the instructions provided by the manufacturer. […] The analytical sensitivity was <0.97 ng/ml. […] The analytical sensitivity was <0.53 IU/mL.

[3] = 4 mg once daily, n=10, Day 1 (baseline)
[4] = 8 mg once daily, n=12, Day 1 (baseline)
[5] = 12 mg once daily, n=13, Day 1 (baseline)
[6] = all doses combined, n=35, Day 1 (baseline)
[7] = all doses combined, n=35, Day 56

(R)-(+)-5-(p-cyanophenyl)-5,6,7,8-tetrahydroimidazolium[1,5-a]pyridine dihydrogen phosphate [dexfadrostat phosphate]
change in 24-h aSBP from baseline to Day 56, mean ([1]; 4 mg once daily, n=10): −8.10 mmHg
change in 24-h aSBP from baseline to Day 56, median ([1]; 4 mg once daily, n=10): −8.17 mmHg
24-h aSBP, mean [1, 3]: 136.84 mmHg
24-h aSBP, median [1, 3]: 138.38 mmHg
24-h aSBP, mean ([1]; 4 mg once daily, n=10, Day 56): 128.74 mmHg
24-h aSBP, median ([1]; 4 mg once daily, n=10, Day 56): 129.43 mmHg
change in 24-h aSBP from baseline to Day 56, mean ([1]; 8 mg once daily, n=12): −13.95 mmHg
change in 24-h aSBP from baseline to Day 56, median ([1]; 8 mg once daily, n=12): −13.33 mmHg
24-h aSBP, mean [1, 4]: 144.88 mmHg
24-h aSBP, median [1, 4]: 144.76 mmHg
24-h aSBP, mean ([1]; 8 mg once daily, n=12, Day 56): 130.93 mmHg
24-h aSBP, median ([1]; 8 mg once daily, n=12, Day 56): 129.43 mmHg
change in 24-h aSBP from baseline to Day 56, mean ([1]; 12 mg once daily, n=13): −9.81 mmHg
change in 24-h aSBP from baseline to Day 56, median ([1]; 12 mg once daily, n=13): −12.43 mmHg
24-h aSBP, mean [1, 5]: 144.96 mmHg
24-h aSBP, median [1, 5]: 146.87 mmHg
24-h aSBP, mean ([1]; 12 mg once daily, n=13, Day 56): 135.15 mmHg
24-h aSBP, median ([1]; 12 mg once daily, n=13, Day 56): 130.82 mmHg
decrease in mean 24-h aSBP from baseline to day 56 ([1]; all dose groups combined, p<0.0001): 10.7 mmHg
change in aSBP from baseline to Day 56, mean ([1]; all doses combined, n=35): −10.74 mmHg
change in aSBP from baseline to Day 56, median ([1]; all doses combined, n=35): −12.23 mmHg
24-hour ambulatory SBP (aSBP), mean [1, 6]: 142.62 mmHg
24-hour ambulatory SBP (aSBP), median [1, 6]: 143.4 mmHg
24-hour ambulatory SBP (aSBP), mean [1, 7]: 131.87 mmHg
24-hour ambulatory SBP (aSBP), median [1, 7]: 130.41 mmHg
LSM change in 24-hour aSBP from baseline ([1]; all patients, Day 1 to Day 56, FIG. 2B, p<0.0001): −10.7 mmHg
effect on 24-hour aSBP ([1]; each dose arm, baseline to day 56): significant reduction (p<0.001) in 24-hour aSBP
plasma aldosterone concentration, mean ([2]; baseline aldosterone 400-600 pmol/L, 4 mg QD, Day 1 (baseline)): 433 pmol/L
plasma aldosterone concentration, mean ([2]; baseline aldosterone 400-600 pmol/L, 4 mg QD, Day 14): 155 pmol/L
plasma aldosterone concentration, mean ([2]; baseline aldosterone 400-600 pmol/L, 4 mg QD, Day 28): 100 pmol/L
plasma aldosterone concentration, mean ([2]; baseline aldosterone 400-600 pmol/L, 4 mg QD, Day 42): 117 pmol/L
plasma aldosterone concentration, mean ([2]; baseline aldosterone 400-600 pmol/L, 4 mg QD, Day 56): 141 pmol/L
plasma aldosterone concentration, mean ([2]; baseline aldosterone 400-600 pmol/L, 4 mg QD, Day 70 (placebo withdrawal)): 425 pmol/L
plasma aldosterone concentration, mean ([2]; baseline aldosterone 400-600 pmol/L, 8 mg QD, Day 1 (baseline)): 404 pmol/L
plasma aldosterone concentration, mean ([2]; baseline aldosterone 400-600 pmol/L, 8 mg QD, Day 14): 70 pmol/L
plasma aldosterone concentration, mean ([2]; baseline aldosterone 400-600 pmol/L, 8 mg QD, Day 28): 70 pmol/L
plasma aldosterone concentration, mean ([2]; baseline aldosterone 400-600 pmol/L, 8 mg QD, Day 42): 47 pmol/L
plasma aldosterone concentration, mean ([2]; baseline aldosterone 400-600 pmol/L, 8 mg QD, Day 56): 58 pmol/L
plasma aldosterone concentration, mean ([2]; baseline aldosterone 400-600 pmol/L, 8 mg QD, Day 70 (placebo withdrawal)): 300 pmol/L
plasma aldosterone concentration, mean ([2]; baseline aldosterone 400-600 pmol/L, 12 mg QD, Day 1 (baseline)): 431 pmol/L
plasma aldosterone concentration, mean ([2]; baseline aldosterone 400-600 pmol/L, 12 mg QD, Day 14): 63 pmol/L
plasma aldosterone concentration, mean ([2]; baseline aldosterone 400-600 pmol/L, 12 mg QD, Day 28): 132 pmol/L
plasma aldosterone concentration, mean ([2]; baseline aldosterone 400-600 pmol/L, 12 mg QD, Day 42): 142 pmol/L
plasma aldosterone concentration, mean ([2]; baseline aldosterone 400-600 pmol/L, 12 mg QD, Day 56): 61 pmol/L
plasma aldosterone concentration, mean ([2]; baseline aldosterone 400-600 pmol/L, 12 mg QD, Day 70 (placebo withdrawal)): 297 pmol/L
plasma aldosterone concentration, mean ([2]; baseline aldosterone 600-1000 pmol/L, 4 mg QD, Day 1 (baseline)): 728 pmol/L
plasma aldosterone concentration, mean ([2]; baseline aldosterone 600-1000 pmol/L, 4 mg QD, Day 14): 186 pmol/L
plasma aldosterone concentration, mean ([2]; baseline aldosterone 600-1000 pmol/L, 4 mg QD, Day 28): 248 pmol/L
plasma aldosterone concentration, mean ([2]; baseline aldosterone 600-1000 pmol/L, 4 mg QD, Day 42): 114 pmol/L
plasma aldosterone concentration, mean ([2]; baseline aldosterone 600-1000 pmol/L, 4 mg QD, Day 56): 250 pmol/L
plasma aldosterone concentration, mean ([2]; baseline aldosterone 600-1000 pmol/L, 4 mg QD, Day 70 (placebo withdrawal)): 325 pmol/L
plasma aldosterone concentration, mean ([2]; baseline aldosterone 600-1000 pmol/L, 8 mg QD, Day 1 (baseline)): 805 pmol/L
plasma aldosterone concentration, mean ([2]; baseline aldosterone 600-1000 pmol/L, 8 mg QD, Day 14): 83 pmol/L
